Tests used:
[1] = Solubility testing of exendin-4 derivatives (HPLC-UV of supernatant); type: physicochemical
Method: Prior to the testing of solubility and stability of a peptide batch, its purity (HPLC-UV) was determined. […] Therefore, solutions from solid samples were prepared in different buffer systems with a concentration of 10 mg/mL compound based on the previously determined % purity. HPLC-UV was performed after 2 h of gentle agitation from the supernatant, which was obtained by 20 min of centrifugation at 4500 rpm. […] This analysis also served as starting point (t0) for the stability testing.

[2] = Stability testing in solution, 7 days at 40° C. (% remaining peptide, HPLC-UV); type: physicochemical; conditions: buffer, 168 h
Method: After that time course, the sample was centrifuged for 20 min at 4500 rpm and 0.2 μL of the supernatant were analysed with HPLC-UV.
For determination of the amount of the remaining peptide, the peak areas of the target compound at t0 and t7 were compared, resulting in “% remaining peptide”, following the equation % remaining peptide=[(peak area peptide t7)×100]/peak area peptide t0.
The stability is expressed as “% remaining peptide”.

human GIP receptor = molecular target: T1, human GIP receptor (Homo sapiens, UniProt P48546); assay: cAMP response of HEK-293 cells stably expressing human GIP receptor (HTRF); type: cell-based; conditions: Table 6; cAMP formation; read-out: EC50 hGIP-R
T1 construct: expressed in transfected cells; host or cells: HEK-293
T1 sequence (P48546 22-466): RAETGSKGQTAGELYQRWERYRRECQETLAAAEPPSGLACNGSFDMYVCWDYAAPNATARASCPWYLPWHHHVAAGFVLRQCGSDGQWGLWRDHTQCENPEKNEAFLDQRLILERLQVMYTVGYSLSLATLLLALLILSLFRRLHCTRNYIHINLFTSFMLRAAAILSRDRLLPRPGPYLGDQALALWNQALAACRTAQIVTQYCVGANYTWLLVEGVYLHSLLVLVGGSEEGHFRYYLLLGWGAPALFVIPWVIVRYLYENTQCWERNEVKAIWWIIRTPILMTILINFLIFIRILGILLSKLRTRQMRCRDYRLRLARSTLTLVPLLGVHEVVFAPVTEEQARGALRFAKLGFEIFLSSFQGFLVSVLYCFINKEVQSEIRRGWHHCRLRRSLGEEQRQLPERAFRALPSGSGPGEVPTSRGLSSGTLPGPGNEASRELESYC
Method: (§1) cAMP content of cells was determined using a kit from Cisbio Corp. (cat. no. 62AM4PEC) based on HTRF (Homogenous Time Resolved Fluorescence). For preparation, cells were split into T175 culture flasks and grown overnight to near confluency in medium (DMEM/10% FBS). Medium was then removed and cells washed with PBS lacking calcium and magnesium, followed by proteinase treatment with accutase (Sigma-Aldrich cat. no. A6964). Detached cells were washed and resuspended in assay buffer (1×HBSS; 20 mM HEPES, 0.1% BSA, 2 mM IBMX) and cellular density determined. They were then diluted to 400000 cells/ml and 25 μl-aliquots dispensed into the wells of 96-well plates. For measurement, 25 μl of test compound in assay buffer was added to the wells, followed by incubation for 30 minutes at room temperature.
(§2) Potencies of peptidic compounds at the GLP-1, glucagon and GIP receptors were determined by exposing cells expressing human glucagon receptor (hGCG R), human GIP (hGIP R) and human GLP-1 receptor (hGLP-1 R) to the listed compounds at increasing concentrations and measuring the formed cAMP as described in Methods.

human glucagon receptor = molecular target: T2, human glucagon receptor (Homo sapiens, UniProt P47871); assay: cAMP response of HEK-293 cells stably expressing human glucagon receptor (HTRF); type: cell-based; conditions: Table 6; cAMP formation; read-out: EC50 hGlucagon-R
T2 construct: expressed in transfected cells; host or cells: HEK-293
Method: as §1, §2

[3] = Pharmacokinetic testing in mice (plasma LC/MS); conditions: mouse, in vivo, sc, 1 mg/kg
Method: Mice are dosed 1 mg/kg subcutaneously (s.c.). The mice are sacrificed and blood samples are collected after 0.25, 0.5, 1, 2, 4, 8, 16 and 24 hours post application. Plasma samples are analyzed after protein precipitation via liquid chromatography mass spectrometry (LC/MS). PK parameters and half-life were calculated using WinonLin Version 5.2.1 (non-compartment model).
Pharmacokinetic profiles were determined as described in Methods.

human GLP-1 receptor = molecular target: T3, human GLP-1 receptor (Homo sapiens, UniProt P43220); assay: cAMP response of HEK-293 cells stably expressing human GLP-1 receptor (HTRF); type: cell-based; conditions: Table 6; cAMP formation; read-out: EC50 hGLP-1R
T3 construct: expressed in transfected cells; host or cells: HEK-293
Method: as §1, §2

T2 sequence (P47871 26-477): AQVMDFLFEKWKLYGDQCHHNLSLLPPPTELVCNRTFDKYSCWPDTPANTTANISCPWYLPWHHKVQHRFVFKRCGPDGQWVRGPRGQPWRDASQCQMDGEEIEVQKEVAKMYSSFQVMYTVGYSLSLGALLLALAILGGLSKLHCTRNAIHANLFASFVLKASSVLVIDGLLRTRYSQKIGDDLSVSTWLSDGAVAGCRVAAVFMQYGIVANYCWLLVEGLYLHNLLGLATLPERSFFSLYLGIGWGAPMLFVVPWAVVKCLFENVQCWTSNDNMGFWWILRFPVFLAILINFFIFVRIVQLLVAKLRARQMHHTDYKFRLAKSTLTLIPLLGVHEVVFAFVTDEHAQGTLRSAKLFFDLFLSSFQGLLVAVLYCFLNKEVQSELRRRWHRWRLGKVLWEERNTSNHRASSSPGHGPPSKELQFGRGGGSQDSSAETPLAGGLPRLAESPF
T3 sequence (P43220 24-463): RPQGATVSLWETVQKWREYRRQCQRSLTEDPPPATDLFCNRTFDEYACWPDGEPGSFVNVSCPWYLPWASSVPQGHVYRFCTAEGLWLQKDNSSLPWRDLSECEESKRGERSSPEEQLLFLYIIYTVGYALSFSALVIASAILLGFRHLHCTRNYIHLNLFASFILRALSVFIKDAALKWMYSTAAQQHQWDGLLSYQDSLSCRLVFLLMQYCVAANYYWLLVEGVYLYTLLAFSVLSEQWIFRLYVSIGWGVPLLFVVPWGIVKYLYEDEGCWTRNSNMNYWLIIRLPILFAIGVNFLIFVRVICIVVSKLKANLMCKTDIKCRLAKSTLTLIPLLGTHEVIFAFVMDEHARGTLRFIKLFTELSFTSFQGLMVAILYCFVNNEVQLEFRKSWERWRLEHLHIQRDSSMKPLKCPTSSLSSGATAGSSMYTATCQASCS

SMILES | solubility at 2 h ([1]; pH 4.5) | solubility at 2 h ([1]; pH 7.4) | Stability (pH 4.5), % remaining peptide [2] | Stability (pH 7.4), % remaining peptide [2] | EC50 (human GIP receptor) | EC50 (human glucagon receptor) | Cmax [3] | half-life [3] | EC50 (human GLP-1 receptor)
CCCCCCCCCCCCCCCC(=O)N[C@@H](CCC(=O)N[C@@H](CCC(=O)NCCCC[C@H](NC(=O)[C@H](CCC(N)=O)NC(=O)[C@H](CCCCN)NC(=O)[C@H](CO)NC(=O)[C@H](CC(C)C)NC(=O)[C@H](CC(=O)O)NC(=O)[C@H](CO)NC(=O)[C@@H](NC(=O)[C@H](Cc1ccccc1)NC(=O)[C@@H](NC(=O)CNC(=O)[C@H](Cc1c[nH]cn1)NC(=O)C(C)(C)NC(=O)[C@@H](N)Cc1c[nH]cn1)[C@@H](C)O)[C@@H](C)O)C(=O)N[C@@H](CCC(=O)O)C(=O)N[C@@H](CCC(=O)O)C(=O)N[C@@H](CCC(=O)O)C(=O)N[C@@H](C)C(=O)N[C@H](C(=O)N[C@@H](CCCNC(=N)N)C(=O)N[C@@H](CC(C)C)C(=O)N[C@@H](Cc1ccccc1)C(=O)N[C@H](C(=O)N[C@@H](CCC(=O)O)C(=O)N[C@@H](Cc1c[nH]c2ccccc12)C(=O)N[C@@H](CC(C)C)C(=O)N[C@@H](CCCCN)C(=O)N[C@@H](C)C(=O)NCC(=O)NCC(=O)N1CCC[C@H]1C(=O)N[C@@H](CO)C(=O)N[C@@H](CO)C(=O)NCC(=O)N[C@@H](C)C(=O)N1CCC[C@H]1C(=O)N1CCC[C@H]1C(=O)N1CCC[C@H]1C(=O)N[C@@H](CO)C(N)=O)[C@@H](C)CC)C(C)C)C(=O)O)C(=O)O [compound 11] | > 5 mg/mL | > 5 mg/mL | 97.5% | 95.8% | 7.9 pM | 8.9 pM | 3.51 µg/mL | 3.3 h | –
CCCCCCCCCCCCCCCC(=O)N[C@@H](CCC(=O)NCCCC[C@H](NC(=O)[C@H](CCC(N)=O)NC(=O)[C@H](CCCCN)NC(=O)[C@H](CO)NC(=O)[C@H](CC(C)C)NC(=O)[C@H](CC(=O)O)NC(=O)[C@H](CO)NC(=O)[C@@H](NC(=O)[C@H](Cc1ccccc1)NC(=O)[C@@H](NC(=O)CNC(=O)[C@H](Cc1c[nH]cn1)NC(=O)C(C)(C)NC(=O)[C@@H](N)Cc1c[nH]cn1)[C@@H](C)O)[C@@H](C)O)C(=O)N[C@@H](CCC(=O)O)C(=O)N[C@@H](CCC(=O)O)C(=O)N[C@@H](CCC(=O)O)C(=O)N[C@@H](C)C(=O)N[C@H](C(=O)N[C@@H](CCCNC(=N)N)C(=O)N[C@@H](CC(C)C)C(=O)N[C@@H](Cc1ccccc1)C(=O)N[C@H](C(=O)N[C@@H](CCC(=O)O)C(=O)N[C@@H](Cc1c[nH]c2ccccc12)C(=O)N[C@@H](CC(C)C)C(=O)N[C@@H](CCCCN)C(=O)N[C@@H](C)C(=O)NCC(=O)NCC(=O)N1CCC[C@H]1C(=O)N[C@@H](CO)C(=O)N[C@@H](CO)C(=O)NCC(=O)N[C@@H](C)C(=O)N1CCC[C@H]1C(=O)N1CCC[C@H]1C(=O)N1CCC[C@H]1C(=O)N[C@@H](CO)C(N)=O)[C@@H](C)CC)C(C)C)C(=O)O [compound 12] | > 5 mg/mL | > 5 mg/mL | 96.7% | 92.0% | 8.8 pM | 12.8 pM | – | – | 3.3 pM
CCCCCCCCCCCCCCCCCC(=O)N[C@@H](CCC(=O)NCCCC[C@H](NC(=O)[C@H](CCC(N)=O)NC(=O)[C@H](CCCCN)NC(=O)[C@H](CO)NC(=O)[C@H](CC(C)C)NC(=O)[C@H](CC(=O)O)NC(=O)[C@H](CO)NC(=O)[C@@H](NC(=O)[C@H](Cc1ccccc1)NC(=O)[C@@H](NC(=O)CNC(=O)[C@H](Cc1c[nH]cn1)NC(=O)[C@@H](CO)NC(=O)[C@@H](N)Cc1c[nH]cn1)[C@@H](C)O)[C@@H](C)O)C(=O)N[C@@H](CCC(=O)O)C(=O)N[C@@H](CCC(=O)O)C(=O)N[C@@H](CCC(=O)O)C(=O)N[C@@H](C)C(=O)N[C@H](C(=O)N[C@@H](CCCNC(=N)N)C(=O)N[C@@H](CC(C)C)C(=O)N[C@@H](Cc1ccccc1)C(=O)N[C@H](C(=O)N[C@@H](CCC(=O)O)C(=O)N[C@@H](Cc1c[nH]c2ccccc12)C(=O)N[C@@H](CC(C)C)C(=O)N[C@@H](CCCCN)C(=O)N[C@@H](C)C(=O)NCC(=O)NCC(=O)N1CCC[C@H]1C(=O)N[C@@H](CO)C(=O)N[C@@H](CO)C(=O)NCC(=O)N[C@@H](C)C(=O)N1CCC[C@H]1C(=O)N1CCC[C@H]1C(=O)N1CCC[C@H]1C(=O)N[C@@H](CO)C(N)=O)[C@@H](C)CC)C(C)C)C(=O)O [compound 25] | – | – | – | – | 407 pM | 39.9 pM | – | – | 8.1 pM

Reference: patent publication US9771406B2, “Peptidic dual GLP-1/glucagon receptor agonists derived from exendin-4” (priority 2014, dated 2017)
